# Values quoted from earlier work as cited in US7739091B2, “Method for estimating protein-protein binding affinities” (The Research Foundation of State University of New York, priority 2006, dated 2010).
# Settings: side chain flanked by peptide bonds, water to n-octanol
row,transfer free energy [kcal/mol],SMILES
1,0.87,C[C@H](N)C(=O)O [Ala]
2,0.92,N[C@@H](Cc1c[nH]cn1)C(=O)O [His]
3,-1.81,N[C@@H](Cc1ccccc1)C(=O)O [Phe]
4,0.85,N[C@@H](CO)C(=O)O [Ser]
5,0.95,C[C@@H](O)[C@H](N)C(=O)O [Thr]
6,-0.8,N[C@@H](Cc1ccc(O)cc1)C(=O)O [Tyr]
